“Also recorded” adds a separate entry of the source. Ends that are not written are not given here.
How the values were obtained:
Format in all cases: cell-based, Human
[1] = system: HaCaT keratinocyte cells; assay: MTT assay, viability of HaCaT keratinocyte cells; settings: 50 μg/ml peptide
Protocol: (§1) Human keratinocyte HaCaT and skin fibroblast CCD-966SK cells were cultured in Dulbecco's Modified Eagle Medium (DMEM) containing 10% (v/v) FBS and 1% (v/v) antibiotics in 5% CO2 at 37° C.
(§2) HaCaT keratinocyte cells (3×10^3, each cell line) in 100 μl complete DMEM were seeded in 96-well plates with or without 50 μg/ml Peptide NO. 9, respectively. Ten microliters of 5 mg/ml 3-(4,5-dimethyl-2-thiazolyl)-2,5-diphenyl-2H-tetrazolium bromide solution (MTT; Sigma) was added to each well for the indicated times and incubated at 37° C. for 3 hours, after which 100 μl 10% SDS in 0.01 N HCl was added to dissolve the MTT formazan crystals. The resultant optical density was measured spectrophotometrically at dual wavelengths, 550 and 630 nm.

[2] = system: CCD966SK cells; assay: MTT assay, viability of CCD966SK cells; settings: 50 μg/ml peptide
Protocol: as §1, §2

[3] = system: CCD-966SK cells; assay: Transwell migration assay, CCD-966SK fibroblast cells; settings: 50 μg/ml peptide, 24-hour culture, P<0.01
Protocol: as §1
(§3) HaCaT cells (5×10^4) or CCD-966SK cells (5×10^3) in 0.25 ml serum-free DMEM were seeded into the upper chamber with an 8-μm pore size membrane (Corning, USA) and 0.5 ml serum free DMEM with or without 50 μg/ml Peptide NO. 9 were loaded to the lower chamber in 24-well culture plate. After 24 hours incubation, cells were fixed and stained with 0.5% (w/v) crystal violet (Sigma) containing 20% (v/v) methanol. The number of migrated cells from 5 random fields was counted under the microscope. Results obtained were analyzed by student's t-test and graphed as mean±SD.

[4] = system: HaCaT cells; assay: Transwell migration assay, HaCaT keratinocyte cells; settings: 50 μg/ml peptide, 24-hour culture, P<0.05
Protocol: as §1, §3

HTSTEAK [Peptide NO. 9]
viability of HaCaT keratinocyte cells ([1]; 24-hour culture): did not significantly affect viability of HaCaT cells | viability of HaCaT keratinocyte cells ([1]; 48-hour culture): did not significantly affect viability of HaCaT cells | viability of HaCaT keratinocyte cells ([1]; 72-hour culture): did not significantly affect viability of HaCaT cells | viability of CCD966SK cells ([2]; 24 hours): did not significantly affect viability of CCD966SK cells | viability of CCD966SK cells ([2]; 48 hours): did not significantly affect viability of CCD966SK cells | viability of CCD966SK cells ([2]; 72 hours): did not significantly affect viability of CCD966SK cells | CCD966SK fibroblast cell migration [3]: enhanced CCD966SK fibroblast cell migration; also recorded: significant efficacy in enhancing HaCaT CCD966SK fibroblast cell migration | HaCaT keratinocyte cell migration [4]: enhanced HaCaT keratinocyte cell migration; also recorded: significant efficacy in enhancing HaCaT keratinocyte cell migration; also recorded: effect in enhancement of keratinocyte cell migration of HaCaT cells
